Experimental data published in the NIST ThermoML archive (doi:10.1021/je0502905).
Numbers after ± are expanded uncertainties.

Legend:
[1] = refractive index (Na D-line) (dimensionless); conditions: 293.15 K; 101.33 kPa; Liquid; Standard Abbe refractometry
[2] = Liquid; for mass density: 293.15 K, 101.33 kPa

Structure (SMILES) | refractive index [1] | mass density [2] | vapor or sublimation pressure ([2]; 359.51 K) | vapor or sublimation pressure ([2]; 379.52 K) | vapor or sublimation pressure ([2]; 392.57 K) | vapor or sublimation pressure ([2]; 400.69 K) | vapor or sublimation pressure ([2]; 375.63 K) | vapor or sublimation pressure ([2]; 392.7 K) | vapor or sublimation pressure ([2]; 403.8 K) | vapor or sublimation pressure ([2]; 410.79 K) | vapor or sublimation pressure ([2]; 379.88 K) | vapor or sublimation pressure ([2]; 401.28 K) | vapor or sublimation pressure ([2]; 415.26 K) | vapor or sublimation pressure ([2]; 423.97 K)
CCCCC(C)=O [2-hexanone] | 1.4008 ± 0.0007 | 811.2 ± 0.8 kg/m3 | 26.66 ± 0.27 kPa | 53.33 ± 0.32 kPa | 79.99 ± 0.45 kPa | 101.32 ± 0.53 kPa | – | – | – | – | – | – | – | –
CCCCCO [pentan-1-ol] | 1.4098 ± 0.0007 | 814.5 ± 0.8 kg/m3 | – | – | – | – | 26.66 ± 0.31 kPa | 53.33 ± 0.37 kPa | 79.99 ± 0.53 kPa | 101.32 ± 0.61 kPa | – | – | – | –
CCCCCCCCC [nonane] | 1.4055 ± 0.0007 | 717.6 ± 0.7 kg/m3 | – | – | – | – | – | – | – | – | 26.66 ± 0.25 kPa | 53.33 ± 0.3 kPa | 79.99 ± 0.42 kPa | 101.32 ± 0.49 kPa
